Results reported in patent US7713994B2 (Wyeth LLC, priority 2005, dated 2010).

Experiments:
LoVo = assay: Cytotoxicity assay (SRB), LoVo; assay type: cell-based; details: Homo sapiens, LoVo, 72 h, LoVo cells, 3 days, SRB; read-out: In Vitro Cellular Activity IC50 LOVO
Procedure: (§1) BT474, HCT-116, LoVo and MCF-7 were maintained under 7% CO2 in RPMI 1640 medium supplemented with 10% fetal bovine serum and 50 µg/ml gentamicin.
(§2) Cells were plated in 96-well microtiter dishes (12000 cells/well for BT474, 4000 cells/well for HCT-116, 6000 cells/well for LoVo and 6000 cells/well for MCF-7) in RPMI 1640 medium containing 5% fetal bovine serum and 50 µg/ml gentamicin. The cells were allowed to incubate overnight at 37° C., 7% CO2. Compound dilutions were prepared using the same medium. HCT-116, LoVo and MCF-7 cells were cultured for three days and BT474 cells were cultured for 6 days, in the presence of each compound dilution. Untreated cells were included as controls. The percentage of surviving cells was determined using a protein binding dye (sulforhodamineB, SRB) assay. Cellular protein was precipitated in each well by the addition of 0.05 ml of 50% cold trichloroacetic acid (TCA). After 1 hour, the plates were washed extensively in dH2O and dried. The sulforhodamineB dye solution (0.08 mL of 0.4% SRB in 1% acetic acid) was added to each well, kept at room temperature for ten minutes, then washed in 1% acetic acid and dried. The dye was dissolved in 10 mM Tris-HCl (150 uL) and the absorbency read at 540 nm.

MCF-7 = assay: Cytotoxicity assay (SRB), MCF-7; assay type: cell-based; details: Homo sapiens, MCF7, 72 h, MCF-7 cells, 3 days, SRB; read-out: In Vitro Cellular Activity IC50 MCF-7
Procedure: as §1, §2

BT474 = assay: Cytotoxicity assay (SRB), BT474; assay type: cell-based; details: Homo sapiens, BT-474, 144 h, BT474 cells, 6 days, SRB; read-out: In Vitro Cellular Activity IC50 BT474
Procedure: as §1, §2

cyclin D1/cdk 4 enzyme = target: T1, cyclin D1/cdk 4 enzyme (Homo sapiens, UniProt P11802); assay: CDK4 ELISA kinase assay (phospho-Rb ser 795 detection); assay type: biochemical; details: In Vitro Enzyme Assay, cyclin D1/cdk 4, read-out: CDK4 IC50
T1 construct: made in house; host or cells: Sf9 insect cells, recombinant baculovirus
Procedure, shortened: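 Inhibition was derived from A450 relative to control wells lacking compound, following an anti-phospho-Rb Ser795 sandwich of HRP detection. The reactions combined coated GST-Rb fragment, 200 μM ATP and baculovirus-expressed cyclin/CDK enzymes, incubated for 1 h at 30° C.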

HCT-116 = assay: Cytotoxicity assay (SRB), HCT-116; assay type: cell-based; details: Homo sapiens, HCT-116, 72 h, HCT116 cells, 3 days, SRB; read-out: In Vitro Cellular Activity IC50 HCT116
Procedure: as §1, §2

T1 sequence (P11802 whole entry, species assumed): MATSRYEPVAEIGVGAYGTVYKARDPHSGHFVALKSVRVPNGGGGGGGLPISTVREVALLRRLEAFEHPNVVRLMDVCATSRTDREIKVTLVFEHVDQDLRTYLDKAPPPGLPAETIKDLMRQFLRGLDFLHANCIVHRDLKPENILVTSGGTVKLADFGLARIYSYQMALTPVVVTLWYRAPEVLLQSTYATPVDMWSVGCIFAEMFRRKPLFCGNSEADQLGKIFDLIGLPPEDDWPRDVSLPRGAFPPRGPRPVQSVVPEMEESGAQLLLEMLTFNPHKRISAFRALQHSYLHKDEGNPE
T1 sequence (P24385 whole entry partner, species assumed): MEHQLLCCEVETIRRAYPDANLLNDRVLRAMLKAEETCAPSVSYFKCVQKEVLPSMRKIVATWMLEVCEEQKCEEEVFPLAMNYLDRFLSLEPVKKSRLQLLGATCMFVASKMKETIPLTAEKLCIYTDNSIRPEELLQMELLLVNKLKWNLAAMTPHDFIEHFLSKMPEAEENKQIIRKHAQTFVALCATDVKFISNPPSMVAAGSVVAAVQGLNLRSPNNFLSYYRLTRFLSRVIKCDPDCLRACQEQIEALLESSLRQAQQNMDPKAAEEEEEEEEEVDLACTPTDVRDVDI

IC50 (cyclin D1/cdk 4 enzyme) | Compound | IC50 (LoVo) | IC50 (MCF-7) | IC50 (BT474) | IC50 (HCT-116)
5.5 µM | O=C1NC(=O)c2ccc(C=Cc3ccc4ccccc4c3)cc2C1=CNCc1ccc(O)c(O)c1 [Example 661, 4-[(3,4-Dihydroxy-benzylamino)-methylene]-6-(2-naphthalen-2-yl-vinyl)-4H-isoquinoline-1,3-dione] | > 50 µM | 37.5 µM | 36.9 µM | > 50 µM
9.6 µM | CN1CCN(c2ccc(NC=C3C(=O)NC(=O)c4ccc(-c5cc6ccccc6o5)cc43)cc2)CC1 [Example 669, 6-Benzofuran-2-yl-4-{[4-(4-methyl-piperazin-1-yl)-phenylamino]-methylene}-4H-isoquinoline-1,3-dione] | 20.6 µM | 2.9 µM | 2 µM | 2.9 µM
4.9 µM | CN1CCN(c2ccc(NC=C3C(=O)NC(=O)c4ccc(C=CCn5ccnc5)cc43)cc2)CC1 [Example 679, 6-(3-Imidazol-1-yl-propenyl)-4-{[4-(4-methyl-piperazin-1-yl)-phenylamino]-methylene}-4H-isoquinoline-1,3-dione] | 6.9 µM | 9.2 µM | 15.5 µM | 6.4 µM
3.4 µM | COc1ccc(-c2ccc3c(c2)C(=CNc2ccc(N4CCN(C)CC4)cc2)C(=O)NC3=O)cc1 [Example 682, 6-(4-Methoxy-phenyl)-4-{[4-(4-methyl-piperazin-1-yl)-phenylamino]-methylene}-4H-isoquinoline-1,3-dione] | 5.2 µM | 4.4 µM | 2.5 µM | 1.5 µM
4.7 µM | CN1CCN(c2ccc(NC=C3C(=O)NC(=O)c4ccc(-c5ccc(Cl)cc5)cc43)cc2)CC1 [Example 689, 6-(4-Chloro-phenyl)-4-{[4-(4-methyl-piperazin-1-yl)-phenylamino]-methylene}-4H-isoquinoline-1,3-dione] | 6.7 µM | 3.8 µM | 3.4 µM | 3 µM
8.3 µM | CN1CCN(c2ccc(NC=C3C(=O)NC(=O)c4ccc(-c5ccccc5Cl)cc43)cc2)CC1 [Example 691, 6-(2-Chloro-phenyl)-4-{[4-(4-methyl-piperazin-1-yl)-phenylamino]-methylene}-4H-isoquinoline-1,3-dione] | 2.2 µM | 2.8 µM | 3 µM | 1.3 µM
2.9 µM | CN1CCN(c2ccc(NC=C3C(=O)NC(=O)c4ccc(-c5cccc(C=CC(=O)O)c5)cc43)cc2)CC1 [Example 699, 3-[3-(4-{[4-(4-Methyl-piperazin-1-yl)-phenylamino]-methylene}-1,3-dioxo-1,2,3,4-tetrahydro-isoquinolin-6-yl)-phenyl]-acrylic acid] | > 50 µM | > 50 µM | > 50 µM | 22.9 µM
6.6 µM | COc1ccc(-c2ccc3c(c2)C(=CNc2ccc(CC#N)cc2)C(=O)NC3=O)cc1 [Example 701, (4-{[6-(4-Methoxy-phenyl)-1,3-dioxo-2,3-dihydro-1H-isoquinolin-4-ylidenemethyl]-amino}-phenyl)-acetonitrile] | > 50 µM | 34.4 µM | 39.6 µM | > 50 µM
7 µM | N#CCc1ccc(NC=C2C(=O)NC(=O)c3ccc(-c4ccc(F)cc4)cc32)cc1 [Example 704, (4-{[6-(4-Fluoro-phenyl)-1,3-dioxo-2,3-dihydro-1H-isoquinolin-4-ylidenemethyl]-amino}-phenyl)-acetonitrile] | > 50 µM | 28.6 µM | 26.4 µM | > 50 µM
7.3 µM | N#CCc1ccc(NC=C2C(=O)NC(=O)c3ccc(-c4ccccc4F)cc32)cc1 [Example 706, (4-{[6-(2-Fluoro-phenyl)-1,3-dioxo-2,3-dihydro-1H-isoquinolin-4-ylidenemethyl]-amino}-phenyl)-acetonitrile] | > 50 µM | 40.4 µM | > 50 µM | > 50 µM
9.8 µM | CC(=O)c1ccccc1-c1ccc2c(c1)C(=CNc1ccc(CC#N)cc1)C(=O)NC2=O [Example 711, (4-{[6-(2-Acetyl-phenyl)-1,3-dioxo-2,3-dihydro-1H-isoquinolin-4-ylidenemethyl]-amino}-phenyl)-acetonitrile] | > 50 µM | > 50 µM | 46.7 µM | > 50 µM
5.5 µM | N#CCc1ccc(NC=C2C(=O)NC(=O)c3ccc(-c4ccccc4Cl)cc32)cc1 [Example 714, (4-{[6-(2-Chloro-phenyl)-1,3-dioxo-2,3-dihydro-1H-isoquinolin-4-ylidenemethyl]-amino}-phenyl)-acetonitrile] | > 50 µM | 31.2 µM | > 50 µM | > 50 µM
9.3 µM | Cc1ccc(-c2ccc3c(c2)C(=CNc2ccc(CC#N)cc2)C(=O)NC3=O)cc1 [Example 715, {4-[(1,3-Dioxo-6-p-tolyl-2,3-dihydro-1H-isoquinolin-4-ylidenemethyl)-amino]-phenyl}-acetonitrile] | 26 µM | 24.8 µM | 33.4 µM | 19.6 µM
9.3 µM | Cc1cccc(-c2ccc3c(c2)C(=CNc2ccc(CC#N)cc2)C(=O)NC3=O)c1 [Example 716, {4-[(1,3-Dioxo-6-m-tolyl-2,3-dihydro-1H-isoquinolin-4-ylidenemethyl)-amino]-phenyl}-acetonitrile] | > 50 µM | 27.2 µM | > 50 µM | > 50 µM
3.6 µM | CN1CCN(c2ccc(NC=C3C(=O)NC(=O)c4ccc(C=CCO)cc43)cc2)CC1 [Example 724, 6-(3-Hydroxy-propenyl)-4-{[4-(4-methyl-piperazin-1-yl)-phenylamino]-methylene}-4H-isoquinoline-1,3-dione] | 10.4 µM | 14.8 µM | 16.9 µM | 5.8 µM
2.9 µM | CN1CCN(c2ccc(NC=C3C(=O)NC(=O)c4ccc(C=Cc5ccc(N)cc5)cc43)cc2)CC1 [Example 725, 6-[2-(4-Amino-phenyl)-vinyl]-4-{[4-(4-methyl-piperazin-1-yl)-phenylamino]-methylene}-4H-isoquinoline-1,3-dione] | 29.9 µM | 29.3 µM | 19.5 µM | 8 µM
10.9 µM | CN1CCN(c2ccc(NC=C3C(=O)NC(=O)c4ccc(C=Cc5ccc(C(F)(F)F)cc5)cc43)cc2)CC1 [Example 729, 4-{[4-(4-Methyl-piperazin-1-yl)-phenylamino]-methylene}-6-[2-(4-trifluoromethyl-phenyl)-vinyl]-4H-isoquinoline-1,3-dione] | 17.9 µM | 2.1 µM | 4.7 µM | 1.4 µM
2.5 µM | CN1CCN(c2ccc(NC=C3C(=O)NC(=O)c4ccc(C=CC(O)CO)cc43)cc2)CC1 (stereo not drawn) [Example 730, 6-(3,4-Dihydroxy-but-1-enyl)-4-{[4-(4-methyl-piperazin-1-yl)-phenylamino]-methylene}-4H-isoquinoline-1,3-dione] | 28.8 µM | 40.9 µM | 20.2 µM | 17.1 µM
6 µM | COc1cccc(-c2ccc3c(c2)C(=CNCc2ccc(S(N)(=O)=O)cc2)C(=O)NC3=O)c1 [Example 737, 4-({[6-(3-Methoxy-phenyl)-1,3-dioxo-2,3-dihydro-1H-isoquinolin-4-ylidenemethyl]-amino}-methyl)-benzenesulfonamide] | 15.3 µM | 12.7 µM | > 50 µM | 17.7 µM
2.5 µM | NS(=O)(=O)c1ccc(CNC=C2C(=O)NC(=O)c3ccc(-c4cccc(Cl)c4)cc32)cc1 [Example 750, 4-({[6-(3-Chloro-phenyl)-1,3-dioxo-2,3-dihydro-1H-isoquinolin-4-ylidenemethyl]-amino}-methyl)-benzenesulfonamide] | 27.8 µM | 39 µM | > 50 µM | 29.1 µM
2.5 µM | NS(=O)(=O)c1ccc(CNC=C2C(=O)NC(=O)c3ccc(-c4ccccc4Cl)cc32)cc1 [Example 751, 4-({[6-(2-Chloro-phenyl)-1,3-dioxo-2,3-dihydro-1H-isoquinolin-4-ylidenemethyl]-amino}-methyl)-benzenesulfonamide] | 10.1 µM | 8.2 µM | 7.1 µM | 6.3 µM
